Earlier results, collected in patent US20230019999A1, “COMBINATION DRUG” (Chugai Seiyaku Kabushiki Kaisha, priority 2019, published 2023).

System: lung cancer cells positive for the CCDC6-RET fusion gene
Settings: non-clinical studies, Non Patent Literatures 9 and 10

## CCc1cc2c(cc1N1CCC(N3CCOCC3)CC1)C(C)(C)c1[nH]c3cc(C#N)ccc3c1C2=O [Alectinib, 9-ethyl-6,6-dimethyl-8-[4-(morpholin-4-yl)-piperidin-1-yl]-11-oxo-6,11-dihydro-5H-benzo[b]carbazole-3-carbonitrile]
  anti-tumor effect: exhibit an anti-tumor effect
